{"source": "patent US6420131B1", "about": "“Use of fluorescein aryl ethers in high throughput cytochrome P450 inhibition assays” (Gentest Corporation, priority 1999, dated 2002)", "molecules": {"B1": {"name": "CYP2C8 (Homo sapiens) (protein)", "chain": "MEPFVVLVLCLSFMLLFSLWRQSCRRRKLPPGPTPLPIIGNMLQIDVKDICKSFTNFSKVYGPVFTVYFGMNPIVVFHGYEAVKEALIDNGEEFSGRGNSPISQRITKGLGIISSNGKRWKEIRRFSLTTLRNFGMGKRSIEDRVQEEAHCLVEELRKTKASPCDPTFILGCAPCNVICSVVFQKRFDYKDQNFLTLMKRFNENFRILNSPWIQVCNNFPLLIDCFPGTHNKVLKNVALTRSYIREKVKEHQASLDVNNPRDFIDCFLIKMEQEKDNQKSEFNIENLVGTVADLFVAGTETTSTTLRYGLLLLLKHPEVTAKVQEEIDHVIGRHRSPCMQDRSHMPYTDAVVHEIQRYSDLVPTGVPHAVTTDTKFRNYLIPKGTTIMALLTSVLHDDKEFPNPNIFDPGHFLDKNGNFKKSDYFMPFSAGKRICAGEGLARMELFLFLTTILQNFNLKSVDDLKNLNTTAVTKGIVSLPPSYQICFIPV", "notes": "purchased GENTEST Corporation; host or cells: baculovirus/insect cells (microsomes, SUPERSOMES)"}}, "key": {"human CYP3A4 [1]": {"target": "T1, human CYP3A4 (Homo sapiens, UniProt P08684)", "T1 sequence (P08684 whole entry)": "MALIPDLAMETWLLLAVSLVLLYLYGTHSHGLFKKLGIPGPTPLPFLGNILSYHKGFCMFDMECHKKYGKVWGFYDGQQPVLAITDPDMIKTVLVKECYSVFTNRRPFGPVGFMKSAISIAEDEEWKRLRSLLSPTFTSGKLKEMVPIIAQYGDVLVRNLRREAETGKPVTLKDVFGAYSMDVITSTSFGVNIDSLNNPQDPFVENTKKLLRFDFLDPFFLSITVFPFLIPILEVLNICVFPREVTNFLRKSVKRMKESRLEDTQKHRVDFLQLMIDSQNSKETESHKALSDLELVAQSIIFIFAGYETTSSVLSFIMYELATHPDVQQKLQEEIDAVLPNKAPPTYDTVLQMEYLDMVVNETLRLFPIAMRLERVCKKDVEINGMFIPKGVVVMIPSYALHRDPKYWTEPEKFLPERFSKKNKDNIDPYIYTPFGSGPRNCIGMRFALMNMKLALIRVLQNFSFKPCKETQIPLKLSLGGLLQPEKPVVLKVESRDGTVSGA", "conditions": "for Range: human"}, "CYP2C8 [2]": {"target": "T2, CYP2C8 (Homo sapiens, UniProt P10632)", "T2 sequence (P10632 1-490)": "B1 chain"}, "human CYP3A4 [3]": {"target": "T1, human CYP3A4", "experiment": "High throughput cytochrome P450 inhibition screen, CYP3A4", "conditions": "Absolute Mean IC50 Values"}, "CYP2C8 [4]": {"target": "T2, CYP2C8", "experiment": "High throughput cytochrome P450 inhibition screen, CYP2C8, compound Ia as substrate"}, "[5]": {"test_system": "panel of Human P450 enzymes", "experiment": "Substrate specificity, dealkylation of Compounds Ia and Ib by a panel of human P450 enzymes", "format": "biochemical", "conditions": "various P450s", "procedure": "The specificity of several cytochrome P450 enzymes for the dealkylation of Compound Ia (FIG. 1) and Compound Ib (FIG. 2) was examined.\nExample Compounds Ia and Ib. […] Final incubation volume was 0.2 ml."}, "[6]": {"test_system": "panel of Human P450 enzymes", "experiment": "Specificity of dealkylation of CMFDE and MF by a panel of human P450 enzymes", "format": "biochemical", "conditions": "CYP1A1 and CYP2C19; 1 uM substrate"}, "Rat CYP2D2": {"target": "T3, Rat CYP2D2 (Rattus norvegicus, UniProt P10634)", "T3 sequence (P10634 1-500)": "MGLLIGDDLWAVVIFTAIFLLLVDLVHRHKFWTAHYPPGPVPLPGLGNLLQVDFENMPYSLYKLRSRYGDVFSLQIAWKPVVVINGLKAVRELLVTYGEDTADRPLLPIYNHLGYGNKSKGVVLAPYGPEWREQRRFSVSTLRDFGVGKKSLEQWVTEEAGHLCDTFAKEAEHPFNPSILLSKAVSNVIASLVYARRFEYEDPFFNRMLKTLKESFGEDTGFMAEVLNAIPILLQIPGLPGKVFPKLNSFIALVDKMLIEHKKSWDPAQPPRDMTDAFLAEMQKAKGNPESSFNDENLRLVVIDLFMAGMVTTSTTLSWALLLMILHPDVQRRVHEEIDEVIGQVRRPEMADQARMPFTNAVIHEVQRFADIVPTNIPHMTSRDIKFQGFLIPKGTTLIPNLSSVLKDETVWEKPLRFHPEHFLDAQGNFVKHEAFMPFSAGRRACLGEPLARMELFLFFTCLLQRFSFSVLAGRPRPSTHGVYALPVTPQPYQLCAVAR", "experiment": "Turnover of fluorometric substrates by rat CYP2D2"}, "Rat CYP1A1": {"target": "T4, Rat CYP1A1 (Rattus norvegicus, UniProt P00185)", "T4 sequence (P00185 1-524)": "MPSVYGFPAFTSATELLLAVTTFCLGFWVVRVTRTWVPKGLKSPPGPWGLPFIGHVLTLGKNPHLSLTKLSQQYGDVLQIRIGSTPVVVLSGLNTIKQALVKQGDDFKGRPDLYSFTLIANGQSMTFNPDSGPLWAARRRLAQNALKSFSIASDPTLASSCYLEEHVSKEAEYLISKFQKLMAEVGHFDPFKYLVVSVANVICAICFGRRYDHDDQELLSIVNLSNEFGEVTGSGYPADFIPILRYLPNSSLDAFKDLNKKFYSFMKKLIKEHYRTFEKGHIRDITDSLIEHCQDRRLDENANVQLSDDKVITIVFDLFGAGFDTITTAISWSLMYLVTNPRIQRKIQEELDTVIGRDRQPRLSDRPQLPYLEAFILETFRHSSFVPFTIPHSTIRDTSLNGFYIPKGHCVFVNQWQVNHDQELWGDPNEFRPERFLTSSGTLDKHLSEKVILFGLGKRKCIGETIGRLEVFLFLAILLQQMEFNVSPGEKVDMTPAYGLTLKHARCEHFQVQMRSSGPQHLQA", "experiment": "Turnover of fluorometric substrates by rat CYP1A1", "conditions": "substrate uM: Ia 2, AMMC 20, CEC 40, MFC 50, BFC 50, BQ 40, BzRes 50; 30 min; enzyme 50 nM (2.5 nM for CEC)"}, "[7]": {"substrate": "O=C(OCc1ccccc1)c1ccccc1-c1c2ccc(=O)cc-2oc2cc(OCc3ccccc3)ccc12", "experiment": "Enzyme kinetics of substrate turnover by cDNA-expressed CYP2C8", "format": "biochemical, human", "conditions": "other: CYP2C8", "procedure": "The evaluation of compounds of Formula I were performed by measuring the kinetics of turnover using cDNA-expressed cytochromes P450 CYP3A4 and CYP2C8. Vmax and Km values are important for the optimization of the assay conditions and for setting the parameters for inhibition experiments.\nExample Compound Ia. […] Final incubation volume was 0.2 ml. […] The activity was quantitated by comparing to a standard curve of fluorescein. Apparent Km and Vmax values were calculated by non-linear regression using SigmaPlot software."}}}
{"molecule": "C#C[C@]1(O)CC[C@H]2[C@@H]3CCc4cc(O)ccc4[C@H]3CC[C@@]21C", "note": "[Ethynylestradiol]", "values": [{"measurement": "Range", "setting": "human CYP3A4 [1]", "result": 4.5}]}
{"molecule": "Nc1ccc(S(=O)(=O)Nc2ccnn2-c2ccccc2)cc1", "note": "[sulfaphenazole]", "values": [{"measurement": "IC50", "setting": "CYP2C8 [2]", "result": "elevated"}]}
{"molecule": "Clc1ccc(COC(Cn2ccnc2)c2ccc(Cl)cc2Cl)c(Cl)c1", "note": "(centres unmarked) [Miconazole]", "values": [{"measurement": "Range", "setting": "human CYP3A4 [1]", "result": 11}]}
{"molecule": "CC(=O)[C@H]1CC[C@H]2[C@@H]3CCC4=CC(=O)CC[C@]4(C)[C@H]3CC[C@]12C", "note": "[Progesterone]", "values": [{"measurement": "IC50", "setting": "human CYP3A4 [3]; BQ, substrate BQ", "result": "> 200", "unit": "µM"}, {"measurement": "IC50", "setting": "human CYP3A4 [3]; Ia, substrate compound Ia", "result": 11.5, "unit": "µM"}, {"measurement": "Absolute Mean IC50 Values, BFC", "setting": "human CYP3A4 [1]", "result": "Activation"}, {"measurement": "Absolute Mean IC50 Values, BzRes", "setting": "human CYP3A4 [1]", "result": "Activation"}]}
{"molecule": "CC(=O)O[C@H]1C(=O)[C@@]2(C)[C@H]([C@H](OC(=O)c3ccccc3)[C@]3(O)C[C@H](OC(=O)[C@H](O)[C@@H](NC(=O)c4ccccc4)c4ccccc4)C(C)=C1C3(C)C)[C@]1(OC(C)=O)CO[C@@H]1C[C@@H]2O", "note": "[paclitaxel]", "values": [{"measurement": "inhibition of the turnover of compound Ia", "setting": "CYP2C8 [4]", "result": "inhibited the turnover of compound Ia"}]}
{"molecule": "COCC(=O)O[C@]1(CCN(C)CCCc2nc3ccccc3[nH]2)CCc2cc(F)ccc2[C@@H]1C(C)C", "note": "[Mibefradil]", "values": [{"measurement": "Range", "setting": "human CYP3A4 [1]", "result": 12}]}
{"molecule": "O=C(O)c1ccccc1-c1c2ccc(=O)cc-2oc2cc(OCc3ccccc3)ccc12", "note": "[Compound Ib, Monobenzyl Fluorescein]", "values": [{"measurement": "signal as a substrate", "setting": "[5]", "result": "substantially less signal versus Compound Ia"}]}
{"molecule": "COc1ccc2c(c1)Oc1cc(O)ccc1C21OC(=O)c2ccccc21", "note": "(centres unmarked) [MF, 3-O-methylfluorescein]", "values": [{"measurement": "substrate quality based on turnover number", "setting": "[6]", "result": "good P450 substrate"}]}
{"molecule": "CC[N+](C)(CC)CCc1c(C)c2ccc(OC)cc2oc1=O", "note": "[AMMC, 3-[2-(N,N-Diethyl-N-methylamino)ethyl]-7-methoxy-4-methylcoumarin]", "values": [{"measurement": "substrate utilization", "setting": "Rat CYP2D2; CYP2D2/AMMC, conditions of Table VI", "result": 45, "unit": "%"}, {"measurement": "Turnover Numbers, CYP2D2", "setting": "Rat CYP2D2; substrate uM: Ia 2, AMMC 20, CEC 40, MFC 50, BFC 50, BQ 40, BzRes 50, 30 min, enzyme 50 nM", "result": "5.9 pmol product/min/pmol enzyme"}, {"measurement": "Turnover Numbers, CYP1A1", "setting": "Rat CYP1A1", "result": "—^b"}]}
{"molecule": "NC(=O)N1c2ccccc2C=Cc2ccccc21", "note": "[Carbamazepine]", "values": [{"measurement": "Range", "setting": "human CYP3A4 [1]", "result": 5.3}]}
{"molecule": "Clc1ccccc1C(c1ccccc1)(c1ccccc1)n1ccnc1", "note": "[Clotrimazole]", "values": [{"measurement": "Range", "setting": "human CYP3A4 [1]", "result": 7.9}]}
{"molecule": "Cc1ncc2n1-c1ccc(Cl)cc1C(c1ccccc1F)=NC2", "note": "[Midazolam]", "values": [{"measurement": "Range", "setting": "human CYP3A4 [1]", "result": 48}]}
{"molecule": "CC[C@H]1OC(=O)[C@H](C)[C@@H](O[C@H]2C[C@@](C)(OC)[C@@H](O)[C@H](C)O2)[C@H](C)[C@@H](O[C@@H]2O[C@H](C)C[C@H](N(C)C)[C@H]2O)[C@](C)(O)C[C@@H](C)C(=O)[C@H](C)[C@@H](O)[C@]1(C)O", "note": "[Erythromycin]", "values": [{"measurement": "IC50", "setting": "human CYP3A4 [3]; BFC, substrate BFC", "result": 4.5, "unit": "µM"}, {"measurement": "IC50", "setting": "human CYP3A4 [3]; BQ, substrate BQ", "result": 54.4, "unit": "µM"}, {"measurement": "IC50", "setting": "human CYP3A4 [3]; BzRes, substrate BzRes", "result": 1.8, "unit": "µM"}, {"measurement": "IC50", "setting": "human CYP3A4 [3]; Overall, mean over the substrates BzRes, BQ, BFC, Ia", "result": 21.5, "unit": "µM"}]}
{"molecule": "B1", "values": [{"measurement": "Km", "setting": "[7]", "result": 1.4, "unit": "µM"}, {"measurement": "kcat", "setting": "[7]", "result": 0.00367, "unit": "s⁻¹"}]}
